Key:
sBC clusters = experiment: Selective delivery of PTM toxin to sBC clusters, live/dead cell quantification; type: cell-based, human; details: 24 hours, vs untreated control
Description: Blank or pentamidine (PTM) (B-cell toxin) loaded NCs were left uncoated or coated with either an ENTPD3 antibody or BSA for up to about 168 hours. Untreated and 1 μM free PTM were utilized as additional controls. […] Although benzalkonium chloride (BKC) can be used for biological applications, it can be toxic to cells at high concentrations.
In further exemplary methods, the number of GFP positive and GFP negative dead cells were quantified as GFP correlates to insulin positive cells. For the dead sBC clusters, 76% at 24 hours (FIG. 20G) and 69% at 72 hours were GFP positive (FIG. 20H).

[1] = NC stability after freeze drying with cryoprotectant; type: physicochemical
Description: In another exemplary method, NC stability after freeze drying was tested as a potential method for preserving NCs for long term storage and use including analyzing NC integrity and cargo retention for extended periods of time. In this example, mannitol (a sugar alcohol example, e.g., sorbitol and the like) was chosen as the cryoprotectant. W/O NCs were utilized for this experiment. Mannitol concentrations of 2.5% w/v, 5.0 w/v, and 10.0 w/v were tested to determine the optimal concentration (FIG. 13A). […] SEM images were taken before (FIG. 13B) and after (FIG. 13C) freeze drying to confirm DLS measurements. It was observed that the NC yield decreased after reconstitution which may be attributed to the mannitol crystallizing and imposing mechanical forces either breaking the NCs or forming aggregates. It is noted that mannitol can be removed, if needed or desired, from the NC formulations by centrifugation and washing in either water or PBS.

N=C(N)c1ccc(OCCCCCOc2ccc(C(=N)N)cc2)cc1 [free PTM, pentamidine]
percentage of dead cells (sBC clusters): killed the majority of sBCs

OC[C@H]1O[C@H](O[C@]2(CCl)O[C@H](CCl)[C@@H](O)[C@@H]2O)[C@H](O)[C@@H](O)[C@H]1Cl [sucralose]
ability to replace mannitol as cryoprotectant in freeze drying of NCs [1]: failed to stabilize the NCs

OC[C@H]1O[C@@](CO)(O[C@H]2O[C@H](CO)[C@@H](O)[C@H](O)[C@H]2O)[C@@H](O)[C@@H]1O [sucrose]
ability to replace mannitol as cryoprotectant in freeze drying of NCs [1]: failed to stabilize the NCs

Reference: patent US20250325493A1, “COMPOSITIONS AND METHODS FOR MAKING AND USING POLYMER-COATED NANOCAPSULES FOR TARGETED PHARMACEUTICAL AGENT DELIVERY” (The Regents of the University of Colorado, a body Corporate, priority 2022, published 2025)
